The values that follow come from patent US7102009B2, “Substituted amine derivatives and methods of use” (Amgen Inc., priority 2001, dated 2006).

pIC50: −log10 of the molar value.

This assay deals with Human Umbilical Vein Endothelial cells (VEGF-stimulated HUVEC proliferation). Description: HUVEC Proliferation Assay (VEGF-stimulated). The format is cell-based. To be noted: VEGF 50 ng/mL, 72 h incubation, CyQuant readout, read-out: inhibited VEGF-stimulated HUVEC proliferation at a level below (IC50). On the procedure: Human Umbilical Vein Endothelial cells are purchased from Clonetics, Inc., as cryopreserved cells harvested from a pool of donors. These cells, at passage 1, are thawed and expanded in EBM-2 complete medium, until passage 2 or 3. The cells are trypsinized, washed in DMEM+10% FBS+antibiotics, and spun at 1000 rpm for 10 min. Prior to centrifugation of the cells, a small amount is collected for a cell count. After centrifugation, the medium is discarded, and the cells are resuspended in the appropriate volume of DMEM+10% FBS+antibiotics to achieve a concentration of 3×10^5 cells/mL. Another cell count is performed to confirm the cell concentration. The cells are diluted to 3×10^4 cells/mL in DMEM+10% FBS+antibiotics, and 100 μL of cells are added to a 96-well plate. The cells are incubated at 37° C. for 22 h.
Prior to the completion of the incubation period, compound dilutions are prepared. Five-point, five-fold serial dilutions are prepared in DMSO, at concentrations 400-fold greater than the final concentrations desired. 2.5 μL of each compound dilution are diluted further in a total of 1 mL DMEM+10% FBS+antibiotics (400× dilution). Medium containing 0.25% DMSO is also prepared for the 0 μM compound sample. At the 22-hour timepoint, the medium is removed from the cells, and 100 μL of each compound dilution is added. The cells are incubated at 37° C. for 2-3 h.
During the compound pre-incubation period, the growth factors are diluted to the appropriate concentrations. Solutions of DMEM+10% FBS+antibiotics, containing either VEGF or bFGF at the following concentrations: 50, 10, 2, 0.4, 0.08, and 0 ng/mL are prepared. For the compound-treated cells, solutions of VEGF at 550 ng/mL or bFGF at 220 ng/mL for 50 ng/mL or 20 ng/mL final concentrations, respectively, are prepared since 10 μL of each will be added to the cells (110 μL final volume). At the appropriate time after adding the compounds, the growth factors are added. VEGF is added to one set of plates, while bFGF is added to another set of plates. For the growth factor control curves, the media on wells B4-G6 of plates 1 and 2 are replaced with media containing VEGF or bFGF at the varying concentrations (50-0 ng/mL). The cells are incubated at 37° C. for an additional 72 h.
At the completion of the 72 h incubation period, the medium is removed, and the cells are washed twice with PBS. After the second wash with PBS, the plates are tapped gently to remove excess PBS, and the cells are placed at −70° C. for at least 30 min. The cells are thawed and analyzed using the CyQuant fluorescent dye (Molecular Probes C-7026), following the manufacturer's recommendations. The plates are read on a Victor/Wallac 1420 workstation at 485 nm/530 nm (excitation/emission). Raw data are collected and analyzed using a 4-parameter fit equation in XLFit. IC50 values are then determined.
Turning to `O=C(Nc1ccc(C(F)(F)F)c(OC[C@H]2CCCN2)c1)c1cccnc1Nc1ccc2cn[nH]c2c1` [Example 85, 2-(1H-Indazol-6-ylamino)-N-[3-(pyrrolidin-2-ylmethoxy)-4-trifluoromethyl-phenyl]-nicotinamide], the pIC50 was greater than 7.30.

In the case of `O=C(Nc1ccc(C(F)(F)F)c(OCCN2CCCC2)c1)c1cccnc1Nc1ccc2cn[nH]c2c1` [Example 86, 2-(1H-Indazol-6-ylamino)-N-[3-(2-pyrrolidin-1-yl-ethoxy)-4-trifluoromethyl-phenyl]-nicotinamide], the pIC50 is greater than 7.30.

In the case of `CC(=O)N1CC(C)(C)c2ccc(NC(=O)c3cccnc3Nc3ccc4cn[nH]c4c3)cc21` [Example 87, N-(1-Acetyl-3,3-dimethyl-2,3-dihydro-1H-indol-6-yl)-2-(1H-indazol-6-ylamino)-nicotinamide], the pIC50 was greater than 7.30.

Take `CN1CCC(C(C)(C)c2ccc(NC(=O)c3cccnc3Nc3ccc4cn[nH]c4c3)cc2)CC1` [Example 88, 2-(1H-Indazol-6-ylamino)-N-{4-[1-methyl-1-(1-methyl-piperidin-4-yl)-ethyl]-phenyl}-nicotinamide]: the pIC50 was greater than 7.30.

With `CC(=O)N1CC(C)(C)Oc2ccc(NC(=O)c3cccnc3Nc3ccc4cn[nH]c4c3)cc21` [Example 89, N-(4-Acetyl-2,2-dimethyl-3,4-dihydro-2H-benzo[1,4]oxazin-6-yl)-2-(1H-indazol-6-ylamino)-nicotinamide], the pIC50 was greater than 7.30.

As to `CN1CCC(c2cc(NC(=O)c3cccnc3Nc3ccc4cn[nH]c4c3)cc(C(F)(F)F)c2)CC1` [Example 90, 2-(1H-Indazol-6-ylamino)-N-[3-(1-methyl-piperidin-4-yl)-5-trifluoromethyl-phenyl]-nicotinamide], the pIC50 was greater than 7.30.

`CN1CC(C)(C)Oc2ccc(NC(=O)c3cccnc3Nc3ccc4cn[nH]c4c3)cc21` [Example 92, 2-(1H-Indazol-6-ylamino)-N-(2,2,4-trimethyl-3,4-dihydro-2H-benzo[1,4]oxazin-6-yl)-nicotinamide]: the pIC50 is greater than 7.30.

Turning to `CC(C)(C)c1ccc(NC(=O)c2cccnc2Nc2ccc3cn[nH]c3c2)cc1OCC1CCNCC1` [Example 93, N-[4-tert-Butyl-3-(piperidin-4-ylmethoxy)-phenyl]-2-(1H-indazol-6-ylamino)-nicotinamide], the pIC50 was greater than 7.30.

For `CC(=O)N1Cc2cc(NC(=O)c3cccnc3Nc3ccc4cn[nH]c4c3)ccc2C(C)(C)C1` [Example 94, N-(2-Acetyl-4,4-dimethyl-1,2,3,4-tetrahydro-isoquinolin-7-yl)-2-(1H-indazol-6-ylamino)-nicotinamide], the pIC50 is greater than 7.30.

In the case of `CC(C)(C)OC(=O)N1CCC[C@H]1COc1cc(NC(=O)c2cccnc2Nc2ccc3cn[nH]c3c2)ccc1C(C)(C)C` [Example 95, 1-Boc-2-(2-tert-Butyl-5-{[2-(1H-indazol-6-ylamino)-pyridine-3-carbonyl]-amino}-phenoxymethyl)-pyrrolidine], the pIC50 was greater than 7.30.

For `CC(C)(C)c1ccc(NC(=O)c2cccnc2Nc2ccc3cn[nH]c3c2)cc1OC[C@@H]1CCCN1` [Example 96, N-[4-tert-Butyl-3-(pyrrolidin-2-ylmethoxy)-phenyl]-2-(1H-indazol-6-ylamino)-nicotinamide], the pIC50 is greater than 7.30.

On to `O=C(Nc1cc(OC[C@@H]2CCCN2)cc(C(F)(F)F)c1)c1cccnc1Nc1ccc2cn[nH]c2c1` [Example 97, 2-(1H-Indazol-6-ylamino)-N-[3-(2S-pyrrolidin-2-ylmethoxy)-5-trifluoromethyl-phenyl]-nicotinamide], for which the pIC50 is greater than 7.30.

With `CC(C)(C)c1ccc(NC(=O)c2cccnc2Nc2ccc3cn[nH]c3c2)cc1N1CCNCC1` [Example 98, N-(4-tert-Butyl-3-piperazin-1-yl-phenyl)-2-(1H-indazol-6-ylamino)-nicotinamide], the pIC50 is greater than 7.30.

`CC1(C)CNc2cc(NC(=O)c3cccnc3Nc3ccc4cn[nH]c4c3)ccc21` [Example 99, N-(3,3dimethyl-2,3-dihydro-1H-indol-6-yl)-2-(1H-indazol-6-ylamino)-nicotinamide]: the pIC50 is greater than 7.30.

Take `CC1(C)CN(C2CCNCC2)c2cc(NC(=O)c3cccnc3Nc3ccc4cn[nH]c4c3)ccc21` [Example 100, N-(3,3-Dimethyl-1-piperidin-4-yl-2,3-dihydro-1H-indol-6-yl)-2-(1H-indazol-6-ylamino)-nicotinamide]: the pIC50 is greater than 7.30.

Turning to `CC1(C)CNc2cc(NC(=O)c3cccnc3Nc3ccc4cn[nH]c4c3)ccc2O1` [Example 101, N-(2,2-Dimethyl-3,4-dihydro-2H-benzo[1,4]oxazin-6-yl)-2-(1H-indazol-6-ylamino)-nicotinamide], the pIC50 is greater than 7.30.

As to `CCCN1CCN(c2cc(NC(=O)c3cccnc3Nc3ccc4cn[nH]c4c3)ccc2C(C)(C)C)CC1` [Example 102, N-[4-tert-Butyl-3-(4-propyl-piperazin-1-yl)-phenyl]-2-(1H-indazol-6-ylamino)-nicotinamide], the pIC50 was greater than 7.30.

On to `CC(C)N1CCN(c2cc(NC(=O)c3cccnc3Nc3ccc4cn[nH]c4c3)ccc2C(C)(C)C)CC1` [Example 103, N-[4-tert-Butyl-3-(4-isopropyl-piperazin-1-yl)-phenyl]-2-(1H-indazol-6-ylamino)-nicotinamide], for which the pIC50 was greater than 7.30.

For `CN1CCC[C@H]1COc1cc(NC(=O)c2cccnc2Nc2ccc3cn[nH]c3c2)cc(C(F)(F)F)c1` [Example 104, 2-(1H-Indazol-6-ylamino)-N-[3-(1-methylpyrrolidin-2-ylmethoxy)-5-trifluoromethyl-phenyl]-nicotinamide], the pIC50 is greater than 7.30.

Regarding `CC1(C)CNC(=O)c2cc(NC(=O)c3cccnc3Nc3ccc4cn[nH]c4c3)ccc21` [Example 105, N-(4,4-Dimethyl-1-oxo-1,2,3,4-tetrahydro-isoquinolin-7-yl)-2-(1H-indazol-6-ylamino)-nicotinamide], the pIC50 is greater than 7.30.

For `CC1(C)COc2cc(NC(=O)c3cccnc3Nc3ccc4cn[nH]c4c3)ccc21` [Example 106, N-(3,3-Dimethyl-2,3-dihydro-benzofuran-6-yl)-2-(1H-indazol-6-ylamino)-nicotinamide], the pIC50 is greater than 7.30.

For the compound `CN(C)CC(=O)N1CC(C)(C)c2ccc(NC(=O)c3cccnc3Nc3ccc4cn[nH]c4c3)cc21` [Example 107, N-[1-(2-Dimethylamino-acetyl)-3,3-dimethyl-2,3-dihydro-1H-indol-6-yl]-2-(1H-indazol-6-ylamino)-nicotinamide], the pIC50 was greater than 7.30.

In the case of `CN1CCN(Cc2cc(NC(=O)c3cccnc3Nc3ccc4cn[nH]c4c3)ccc2C(F)(F)C(F)(F)F)CC1` [Example 108, 2-(1H-Indazol-6-ylamino)-N-[3-(4-methyl-piperazin-1-ylmethyl)-4-pentafluoroethyl-phenyl]-nicotinamide], the pIC50 is greater than 7.30.

For the compound `O=C(Nc1ccc(C(F)(F)C(F)(F)F)c(CN2CCOCC2)c1)c1cccnc1Nc1ccc2cn[nH]c2c1` [Example 110, 2-(1H-Indazol-6-ylamino)-N-(3-morpholin-4-ylmethyl-4-pentafluoroethyl-phenyl)-nicotinamide], the pIC50 was greater than 7.30.

For the compound `O=C(Nc1ccc(C(F)(F)C(F)(F)F)c(CN2CCNCC2)c1)c1cccnc1Nc1ccc2cn[nH]c2c1` [Example 111, 2-(1H-Indazol-6-ylamino)-N-(4-pentafluoroethyl-3-piperazin-1-ylmethyl-phenyl)-nicotinamide], the pIC50 was greater than 7.30.

`CC(C)(C)c1ccc(NC(=O)c2cccnc2Nc2ccc3cn[nH]c3c2)cc1NCCO` [Example 115, N-[4-tert-Butyl-3-(2-hydroxy-ethylamino)-phenyl]-2-(1H-indazol-6-ylamino)-nicotinamide]: the pIC50 is greater than 7.30.

Take `CC(C)(C)c1ccc(NC(=O)c2cccnc2Nc2ccc3cn[nH]c3c2)cc1NCCN1CCOCC1` [Example 116, N-[4-tert-Butyl-3-(2-morpholin-4-yl-ethylamino)-phenyl]-2-(1H-indazol-6-ylamino)-nicotinamide]: the pIC50 is greater than 7.30.

Consider `O=C(Nc1ccc2c(c1)CN(CCN1CCOCC1)CC2)c1cccnc1Nc1ccc2cn[nH]c2c1` [Example 118, 2-(1H-Indazol-6-ylamino)-N-[2-(2-morpholin-4-yl-ethyl)-1,2,3,4-tetrahydro-isoquinolin-7-yl]-nicotinamide], for which the pIC50 was greater than 7.30.
